# Reference: US4145444A, “Anti-inflammatory agent of benzoyl derivative” (priority 1977, dated 1979)
# Where two headings read alike, the source gives them in different places.
# Legend:
# [1] = test system: hind paws of male rats; experiment: Anti-inflammatory effect: acute carragheenin edema method; type: in vivo; conditions: Rattus norvegicus, read-out: Anti-inf.: edema inhibition rate
# Description: The edema was induced by subcutaneous injection of 1% carragheenin suspension in saline to the hind paws of male rats weighting 150 to 180 g. Each sample was orally given at the dosage of 100 mg/kg just before the inoculation of carragheenin.
# [2] = test system: platelet; experiment: Blood platelet aggregation inhibiting effect (collagen-induced); type: cell-based, rabbits; conditions: Oryctolagus cuniculus, Platelet, read-out: Blood platelet agg. inh.: percentage inhibition of platelet aggregation
# Source text: Male rabbits (Japan original white strain 3.3 to 3.6 kg) were anesthetized with Thiopental sodium and blood was sampled from the carotid artery.
# [3] = test system: thrombus; experiment: Inhibiting effect on thrombosis (by-pass between left juglar vein and right carotid artery, silk thread); type: in vivo, SD type male rates; conditions: Rattus norvegicus, read-out: Thrombosis inh.: thrombosis inhibition rate
# Description: The inhibiting effects of the samples of the invention on thrombosis were tested by the following test method.
# A 0.5 ml of 50 μ/ml of the heparin physiological saline was added through the polyethylene tube before the first blood circulation. After the blood circulation for 15 minutes, the circulation was stopped in the middle of the tubing at artery side with a pinch cock.
# Then, 0.2 ml of the heparin physiological saline was added to remove the blood coagulates on the tubing wall and another new polyethylene tubing filled with the heparin solution and containing a piece of new silk thread was attached between the venous and artery tubing ends.
# The blood circulation was reestablished by opening the pinch cock. After 15 minutes, the wet weight of thrombus on the silk thread was similarly measured.
# In the same manner, the third circulation was performed and wet weight of thrombus measured.
# The amount of thrombus was given by the equation A. [formula] Each sample was suspended in an aqueous solution of sodium carboxymethyl cellulose and the oral dose of the suspension (100 mg/kg) was performed at 5 hours before the first blood circulation.
# The amount of thrombus after the oral dose of the sample was calculated in the same manner as that of control circulations.
# The thrombosis inhibition rate was given by the equation B. [formula]
# [4] = test system: male mice; experiment: Analgesic effect: painful stretchings following intraperitoneal 0.7% acetic acid; conditions: Mus musculus, po, read-out: Analgesic: percentage diminition of times of painful stretching
# Description: Each sample was orally administered in the dosage of 100 mg/kg before injection of acetic acid.
# [5] = 10^-4 mole, collagen inducer, rabbit PRP
# [6] = 100 mg/kg oral, 5 hours before first blood circulation, rats
# [7] = 100 mg/kg oral, carragheenin edema, male rats (Table 2)
smiles,measurement,setting,value
CCCCCCCc1ccc(C(=O)c2ccc(C)cc2)cc1 [compound 85],inhibition in vivo at 100 mg/kg,[1]; po,18.7%
same,inhibition at 100 µM,[2]; [5],18.7%
same,inhibition in vivo at 100 mg/kg,[3]; [6],16.2%
same,inhibition in vivo at 100 mg/kg,[4],10.2%
COc1ccc(C(=O)C(=O)c2ccccc2)cc1,inhibition in vivo at 100 mg/kg,[1]; po,43.9%
same,inhibition at 100 µM,[2],20.1%
same,inhibition in vivo at 100 mg/kg,"[3]; po, 5 h",18.3%
same,inhibition in vivo at 100 mg/kg,[4],10.2%
CCCc1ccc(C(=O)c2ccc(C)cc2C)cc1 [compound 96],inhibition in vivo at 100 mg/kg,[1]; [7],26.1%
same,inhibition at 100 µM,[2]; [5],28.5%
same,inhibition in vivo at 100 mg/kg,[3]; [6],36.7%
same,inhibition in vivo at 100 mg/kg,[4],18.9%
CC(C)(C)c1ccc(C(=O)c2ccccc2)cc1 [compound 22],inhibition in vivo at 100 mg/kg,[1]; [7],36.4%
same,inhibition at 100 µM,[2]; [5],9.5%
same,inhibition in vivo at 100 mg/kg,[3]; [6],7.9%
same,inhibition in vivo at 100 mg/kg,[4],8.2%
CCCc1ccc(C(=O)c2ccc(CCC)cc2)cc1 [compound 110],inhibition in vivo at 100 mg/kg,[1]; [7],17%
same,inhibition at 100 µM,[2]; [5],20.5%
same,inhibition in vivo at 100 mg/kg,[3]; [6],18.6%
same,inhibition in vivo at 100 mg/kg,[4],10.5%
CCCCCCc1ccc(C(=O)c2c(C)cc(C)cc2C)cc1 [compound 103],inhibition in vivo at 100 mg/kg,[1]; [7],29.7%
same,inhibition at 100 µM,[2]; [5],29.5%
same,inhibition in vivo at 100 mg/kg,[3]; [6],35.8%
same,inhibition in vivo at 100 mg/kg,[4],14.2%
CCCCc1ccc(C(=O)c2ccc(F)cc2C)cc1 [compound 46],inhibition in vivo at 100 mg/kg,[1]; [7],43.4%
same,inhibition at 100 µM,[2]; [5],16.5%
same,inhibition in vivo at 100 mg/kg,[3]; [6],34.5%
same,inhibition in vivo at 100 mg/kg,[4],13.4%
Cc1cc(C)c(C(=O)c2ccccc2)cc1C [compound 32],inhibition in vivo at 100 mg/kg,[1]; [7],47.7%
same,inhibition at 100 µM,[2]; [5],12.4%
same,inhibition in vivo at 100 mg/kg,[3]; [6],25%
same,inhibition in vivo at 100 mg/kg,[4],26.2%
Cc1cc(C)c(C)c(C(=O)c2ccccc2)c1C [compound 78],inhibition in vivo at 100 mg/kg,[1]; [7],12.5%
same,inhibition at 100 µM,[2]; [5],19.9%
same,inhibition in vivo at 100 mg/kg,[3]; [6],20.2%
same,inhibition in vivo at 100 mg/kg,[4],5.4%
CCCc1ccc(C(=O)c2ccc(OC)cc2)cc1 [compound 93],inhibition in vivo at 100 mg/kg,[1]; [7],20.4%
same,inhibition at 100 µM,[2]; [5],24.4%
same,inhibition in vivo at 100 mg/kg,[3]; [6],26.8%
same,inhibition in vivo at 100 mg/kg,[4],14.7%
CCCCCCCCCCc1ccc(C(=O)Cc2ccccc2)cc1 [compound 50],inhibition in vivo at 100 mg/kg,[1]; [7],25.5%
same,inhibition at 100 µM,[2]; [5],8.7%
same,inhibition in vivo at 100 mg/kg,[3]; [6],28.3%
same,inhibition in vivo at 100 mg/kg,[4],16.4%
O=C(c1ccccc1)c1ccc(O)cc1 [compound 109],inhibition in vivo at 100 mg/kg,[1]; [7],12.7%
same,inhibition at 100 µM,[2]; [5],13.7%
same,inhibition in vivo at 100 mg/kg,[3]; [6],20.3%
same,inhibition in vivo at 100 mg/kg,[4],2.6%
CCCc1ccc(C(=O)c2ccccc2F)cc1 [compound 7],inhibition in vivo at 100 mg/kg,[1]; [7],55.6%
same,inhibition at 100 µM,[2]; [5],23%
same,inhibition in vivo at 100 mg/kg,[3]; [6],24.6%
same,inhibition in vivo at 100 mg/kg,[4],15%
Cc1ccc(C(=O)c2ccccc2)cc1 [compound 65],inhibition in vivo at 100 mg/kg,[1]; [7],17.3%
same,inhibition at 100 µM,[2]; [5],21%
same,inhibition in vivo at 100 mg/kg,[3]; [6],19.2%
same,inhibition in vivo at 100 mg/kg,[4],10.9%
Cc1ccc(C(=O)c2ccccc2F)c(C)c1 [compound 10],inhibition in vivo at 100 mg/kg,[1]; [7],47.5%
same,inhibition at 100 µM,[2]; [5],18.5%
same,inhibition in vivo at 100 mg/kg,[3]; [6],29.7%
same,inhibition in vivo at 100 mg/kg,[4],20.3%
Cc1cc(C)c(C(=O)c2ccc(O)cc2)c(C)c1 [compound 108],inhibition in vivo at 100 mg/kg,[1]; [7],10.5%
same,inhibition at 100 µM,[2]; [5],28.4%
same,inhibition in vivo at 100 mg/kg,[3]; [6],34.7%
same,inhibition in vivo at 100 mg/kg,[4],3.1%
CCCCCc1ccc(C(=O)c2cccc(C)c2)cc1 [compound 89],inhibition in vivo at 100 mg/kg,[1]; [7],27.6%
same,inhibition at 100 µM,[2]; [5],22.6%
same,inhibition in vivo at 100 mg/kg,[3]; [6],13.2%
same,inhibition in vivo at 100 mg/kg,[4],4.3%
COc1ccc(OC)c(C(=O)c2ccccc2)c1 [compound 75],inhibition in vivo at 100 mg/kg,[1]; [7],29.5%
same,inhibition at 100 µM,[2]; [5],30.7%
same,inhibition in vivo at 100 mg/kg,[3]; [6],29.2%
same,inhibition in vivo at 100 mg/kg,[4],22%
